According to patent US12678437B2, “Use of Cyclo-HisPro (CHP) for lowering blood pressure” (NOVMETAPHARMA CO., LTD., priority 2020, dated 2026):

Legend:
VE-cadherin = VE-cadherin protein expression (Western blot) in angiotensin II-treated HUVEC cells; type: cell-based, Human; details: HUVEC cells treated with Ang II and CHP, versus Ang II-treated control; corrected by β-actin
Description: (§1) Human umbilical vein endothelial cells (HUVEC, CRL-1730) were obtained from the American Type Culture Collection (ATCC), and EBM-2 basal medium and EGM-2 MV microvascular endothelial cell growth medium SingleQuots supplements were purchased from Lonza.
(§2) HUVEC cells were cultured in EBM-2 medium supplemented with EGM-2 MV SingleQuots supplements at 37° C. and 5% CO2 conditions. The medium was replaced every 2 to 3 days, and subculture was performed at 70 to 80% confluency.
(§3) HUVEC cells treated with angiotensin II and CHP were placed in 500 uL of RIPA buffer containing protease and phosphatase inhibitors, and then pulverized by using IKA's T10 homogenizer. […] The supernatant was collected and the protein concentration was measured by BCA quantitation, and the same amount of samples was separated by using the Bolt TM protein gel electrophoresis system, and then transferred to a nitrocellulose membrane. […] After washing 3 times for 10 minutes with TBST, the expression level was measured by reacting with ECL. The size of the appearing band was quantified by using the ImageJ program and corrected by dividing the size value of each band by the size value of the β-actin band. Statistical significance was analyzed by using Student's t-test statistical method with angiotensin II-treated control group (Ang II) (*p<0.05, […], ***p<0.0005).

[1] = system: AT2R (angiotensin II type 2 receptor); experiment: AT2R protein expression (Western blot) in angiotensin II-treated HUVEC cells; type: cell-based, Human; details: HUVEC cells treated with Ang II and CHP, versus Ang II-treated control; corrected by β-actin
Description: as §1, §2, §3

eNOS gene = eNOS gene expression (real-time PCR) in SVEC4-10 cells; type: cell-based, mouse; details: CHP 0, 10, 100 and 250 μM, serum-free medium, 2 hours, corrected by β-actin
Description: SVEC4-10 (CRL-2181), which is a mouse endothelial cell line, was obtained from the American Type Culture Collection (ATCC), and RPMI-1640 medium and FBS were purchased from Hyclone.
SVEC4-10 cells were cultured at 37° C. and 5% CO2 conditions by using RPMI-1640 medium containing 10% FBS and 1% penicillin/streptomycin, and subculture was performed every 2 days.
SVEC4-10 cells were placed in a 6-well plate at 5×10^5 cells and cultured for 24 hours. CHP was treated at concentrations of 0, 10, 100 and 250 μM in serum-free medium, respectively, and then it was cultured at 37° C. and 5% CO2 conditions for 2 hours. Thereafter, the medium was removed, and it was washed once with cold PBS and then immediately dissolved using NucleoZOL.
For RNA extraction, RNA was extracted according to the manufacturer's total RNA isolation protocol by using NucleoZOL (MACHEREY-NAGEL), and 1 μg of RNA was subjected to reverse transcription polymerase chain reaction to synthesize cDNA by using iScript cDNA synthesis kit (Bio-Rad). The synthesized cDNA was analyzed by real-time PCR using iQ SYBR Green Supermix (Bio-Rad) by using the primer set of the eNOS gene.
Each gene expression value was corrected by dividing by the expression value of β-actin, which is a housekeeping gene. Statistical significance was analyzed by the Student's t-test statistical method (*p<0.05).

[2] = system: AT1R (angiotensin II type I receptor); experiment: AT1R protein expression (Western blot) in angiotensin II-treated HUVEC cells; type: cell-based, Human; details: HUVEC cells treated with Ang II and CHP, versus Ang II-treated control; corrected by β-actin
Description: as §1, §2, §3

HMVEC-L cells = experiment: NO production (DAF-FM DA fluorescence) in HMVEC-L cells; type: cell-based, Human; details: CHP 0, 1, 10, 100 and 500 μM, serum-free medium, 2 hours, versus control not treated with CHP
Description: Human lung microvascular cells (HMVEC-L, CC2527) were obtained from the American Type Culture Collection (ATCC), and EBM-2 basal medium and EGM-2 MV microvascular endothelial cell growth medium SingleQuots supplements were purchased from Lonza.
HUVEC-L cells were cultured in EBM-2 medium supplemented with EGM-2 MV SingleQuots at 37° C. and 5% CO2 conditions. The medium was replaced every 2 to 3 days, and subculture was performed at 70 to 80% confluency.
5×10^4 cells were placed in a black 96-well plate, incubated for 24 hours and treated with CHP at concentrations of 0, 1, 10, 100 and 500 μM in serum-free medium, respectively, and cultured at 37° C. and 5% CO2 conditions for 2 hours. DAF-FM DA (DAF-FM Diacetate; Invitrogen) at a concentration of 5 μM was added and further incubated for 30 minutes, and it was washed once with PBS and observed with a fluorescence microscope at FITC wavelength. Photographs were taken at the same exposure time, and the fluorescence intensity of each cell was measured by using the ImageJ tool. Statistical significance was analyzed by one-way ANOVA statistical method, and comparison with the control group which was not treated with CHP was analyzed by Dunnett's test (****p<0.0001).

⅚ nephrectomy rats [3] = experiment: Prophylactic (pre-treatment) blood pressure control in ⅚ nephrectomy rats; type: in vivo; details: ⅚ nephrectomy SD rats; oral 35 mg/kg every other day for 8 weeks from 3 days before nephrectomy; tail artery; SHAM 127.8, disease control (Nx) 196.2
Description: 1-1. Construction of ⅚ Nephrectomy Model and Cyclo-HisPro Administration
The kidney is involved in water and sodium metabolism and is closely associated with the renin-angiotensin system, and thus, kidney disease itself, that is, glomerulitis or renal failure, may cause hypertension and play an important role in the development of essential hypertension. Chronic renal failure through nephrectomy in rats leads to continued progression of hypertension, uremia, proteinuria and glomerulosclerosis.
After pre-bringing 7-week-old SD rats purchased from Koatech Co., Ltd. for more than one week, the experimental group underwent surgery in two stages. […]
In order to reduce the error range of blood pressure measurement, the experimental animals were calibrated in the holder of a blood pressure meter (BP-2000 blood pressure analysis system, rat platform 2-channel, Visitech Systems, Apex, NC, USA) and then acclimatized in a heating chamber at 37° C. for 30 minutes, and the systolic blood pressure was measured at least 5 times in the tail artery to obtain the average value. […]

⅚ nephrectomy rats [4] = experiment: Therapeutic (post-treatment) blood pressure control in ⅚ nephrectomy rats; type: in vivo; details: ⅚ nephrectomy SD rats; oral 35 mg/kg every other day for 6 weeks from 2 weeks after nephrectomy; tail artery; SHAM 127.8, disease control (Nx) 196.2
Description: After pre-bringing 7-week-old SD rats purchased from Koatech Co., Ltd. for more than one week, the experimental group underwent surgery in two stages. After general anesthesia, incision was performed along the midline of the abdomen to separate the left kidney from the adrenal glands and surrounding tissues, and after holding the renal blood vessel with forceps to prevent bleeding, the upper ⅓ and lower ⅓ of the left kidney were removed, and after 1 week, general anesthesia was performed again, and the entire right kidney was removed to complete a ⅚ nephrectomy model.
In order to reduce the error range of blood pressure measurement, the experimental animals were calibrated in the holder of a blood pressure meter (BP-2000 blood pressure analysis system, rat platform 2-channel, Visitech Systems, Apex, NC, USA) and then acclimatized in a heating chamber at 37° C. for 30 minutes, and the systolic blood pressure was measured at least 5 times in the tail artery to obtain the average value. The significance of the experimental results was verified by performing t-test for each group of the disease control group (Nx), the normal control group and the Cyclo-HisPro administration group, and there was a statistically significant difference (**p<0.005, ***p<0.0005, ****p<0.00005).
2-1. Construction of ⅚ Nephrectomy Model and Administration of Cyclo-HisPro […]

In the case of `O=C1N[C@@H](Cc2cnc[nH]2)C(=O)N2CCC[C@@H]12` [Cyclo-HisPro], the VE-cadherin protein expression (VE-cadherin) is reported as “statistically significantly increased”, the AT2R protein expression [1] is reported as “tended to increase” and the “expression of the eNOS gene” value (eNOS gene) is reported as “significantly increased”. For the same compound, the AT1R protein expression [2] was “statistically significantly decreased”, the “NO production (intensity of DAF-FM DA fluorescence)” value (HMVEC-L cells) was “significantly increased” and the systolic blood pressure (⅚ nephrectomy rats [3]) was 156.7 mmHg. It also gave a systolic blood pressure (⅚ nephrectomy rats [4]) of 171.6 mmHg.
